# Experiments:
# U937 cells [1] = experiment: Cell cycle analysis by 7-AAD staining; assay type: cell-based, human; settings: 24 hours
# Experimental: (§1) To evaluate the effects of BKT300-N1 on cell cycle distribution 7-Aminoactinomycin D (7-AAD) protocol was used. Cells were seeded in 24 wells of microplates at a density of 1×10^6 Cells/well and exposed to different concentrations of the tested compound, BKT300-N1 or BKT300-3-C5, for 24 or 48 hours at 37° C. in a CO2 incubator. After incubation time, cells were collected and washed with cold PBS. Cells were fixed for 20 minutes at 4° C. and processed according to the 7-AAD labeling protocol. The intensity of dye in staining cells was measured by flow cytometry. Cell cycle analysis calculated G0/G1, G2/M and sub-G0 phases from a 7-AAD area histogram.
# Using the above protocol, U937 cells were treated with different concentrations of BKT300-N1 or BKT300-3-C5 (0.05, 0.1, 0.5 and 1 μM) for 24 hours and then cell cycle phases were analyzed by flow cytometry using 7-AAD.
# SDF-1 = SDF-1 (Homo sapiens, UniProt P48061); experiment: Transwell migration assay of Jurkat cells towards SDF-1; assay type: cell-based; settings: 0.5 μM, 1 μM, or 5 μM; 100 ng/ml SDF-1; 3 hours; FIG. 2
# Sequence of SDF-1 (P48061 22-93, species assumed): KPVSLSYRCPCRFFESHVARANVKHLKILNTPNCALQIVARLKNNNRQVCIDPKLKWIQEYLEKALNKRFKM
# Experimental: 600 μl of RPMI medium containing 1% fetal calf serum (FCS) was added to the lower chambers of Transwell® transmigration plates, supplemented with 100 ng/ml of SDF-1. BKT300-N1 was added to the lower chambers at the indicated concentration, except in control samples. The SDF-1 was incubated with BKT300-N1 for 30 minutes at room temperature before the initiation of the migration assay. Following 30 minutes of incubation 2×10^5 Jurkat cells were added to the upper chambers of the transmigration plates in a total volume of 100 μl. Cells which migrated within 3 hours to the bottom chamber of the Transwell® plates were counted using a FACScalibur™ flow cytometer.
# HCC SNU449 cells = experiment: Scratch assay (IncuCyte), cell invasion and migration; assay type: cell-based, human
# Experimental: Scratch assay was performed to assess the effects of BKT300-N1 compared to that of BKT300-3-C5 on cell invasion and migration. This system measures scratch closure in real time and automatically calculates the relative wound density and wound width within the initially-vacant area at each time point. The relative wound density is the ratio of the occupied area to the total area of the initial scratched region.
# Cells were plated on 96-well Image-lock plates (Essen Bioscience) and grown overnight to form a spatially uniform monolayer.
# Scratches were made by using a 96-pin tool WoundMaker™ (Essen BioScience) to create uniform, reproducible scratches in all the wells of a 96-well plate. After creating the scratch, the medium was aspirated and the wells are washed twice with fresh medium to remove any cells from the scratched area. Following the washes, fresh medium containing different concentrations of the tested compound was added to the wells. Once the fresh medium is added, the plate was placed into the IncuCyte ZOOM™ apparatus and images of the collective cell spreading are recorded every 4 hours for a total duration of 60 hours.
# Data processing and analysis were done using the IncuCyte S3 Live-cells Analysis System.
# The scratch assay was performed using HCC SNU449 cells. The cells were scratched and incubated with 0.05, 0.1, 0.5, 1 and 10 μM of BKT300-N1 or BKT300-3-C5.
# U937 cells [2] = experiment: Annexin-V/PI apoptosis assay by flow cytometry; assay type: cell-based, human; settings: 25-1000 nM, 24 hours, compared to BKT300-3-C5
# Experimental: Apoptosis was determined by flow cytometry analysis using Annexin-V kit. U937 cancer cells were incubated in RPMI cell medium with 1% fetal calf serum (FCS) at a concentration of 1×10^6 cells/well at a final volume of 1 ml in 24-well plate. The tested compound (BKT300-N1 or BKT300-3-C5) was added to the cells at the indicated concentrations. After 24 hours incubation, medium and cells were collected and centrifuged, then stained with Annexin-V and propidium iodide (PI) kit according to manufacturer's instructions. The numbers of viable cells (Annexin-V negative/PI negative); early apoptotic cells (Annexin-V positive/PI negative); late apoptosis cells (Annexin-V positive/PI positive) and necrotic cells (Annexin-V negative/PI positive) were then evaluated by flow cytometry (FACS).
# [3] = tested on: cleaved caspase-3 in U937 cells; experiment: Western blot for cleaved caspase-3; assay type: cell-based, human; settings: 0.1, 0.5 and 1 μM; 24 hours; FIGS. 7A-7B
# Experimental: The role of caspase-3 (CASP3) in the BKT300-N1-induced apoptosis of AML cell lines U937 was tested. Cells were incubated with BKT300-N1 (0.1, 0.5 and 1 μM) for 24 hours, and were then tested for the presence of cleaved caspase 3 using mAb against human cleaved caspase 3 by Western blot assay.
# H69 cells = experiment: Cell cycle analysis by 7-AAD staining; assay type: cell-based; settings: different concentrations; 48 hours; FIG. 9
# Experimental: as §1
# Using the above protocol, H69 cells were treated with different concentrations of BKT300-N1 for 48 hours and then cell cycle phases were analyzed by flow cytometry using 7-AAD. Cells were gated according to the cells cycle phase: P1 for G0/G1 phase; P2-apoptotic cells in subG0 phase; and P3 for G2/M phase.
# [4] = tested on: human ovarian (CTG-1086) cancer; experiment: Patient derived xenograft (PDX) tumor growth, ovarian; assay type: in vivo, mice; settings: SC every 12 hours, 5 mg or 10 mg daily dose; compared to vehicle control; FIG. 13A
# Experimental: (§2) In additional experiments, the in vivo efficacy of BKT300-N1, on the growth of subcutaneous, low passage Champions' TumourGraft® patient derived xenograft (PDX) models of human non-small-cell lung (CTG-0198), colorectal (CTG-0923) and ovarian (CTG-1086) cancer in female immunocompromised mice was tested.
# (§3) Athymic Nude-Foxn1nu (Immunocompromised) female mice aged 6-8 weeks were implanted with 1-1.5 cm^3 harvested tumors unilaterally on the left flank. When the tumors reached an average volume of 200 cubic millimeters, control group was treated daily with a vehicle and treatment group was treated with either 2.5 mg per mice per injection (low dose) or 5 mg per mice per injection (hight dose) of BKT300-N1. The control group was subcutaneously (SC) injected with the vehicle (Cremophore EL and Ethanol 50%/50% volume/volume) diluted 1:6 with 0.9% Sodium Chloride.
# (§4) For the low dose treatment group, a stock solution of 30 mg/mL BKN300-N1 was preapared in the vehicle and further diluted 1:6 with 0.9% Sodium Chloride, to a final concentration of 5 mg/mL. Animals received a 0.5 mL subcutaneously (SC) injection every 12 hours (for a 2.5 mg/injection=5 mg daily dose).
# (§5) For the high dose treatment group, a stock solution of 30 mg/mL BKN300-N1 was preapared in the vehicle and further diluted 1:3 with 0.9% Sodium Chloride, to a final concentration of 10 mg/mL. […]
# [5] = tested on: human non-small-cell lung (CTG-0198) cancer; experiment: Patient derived xenograft (PDX) tumor growth, lung; assay type: in vivo, mice; settings: SC every 12 hours, 5 mg or 10 mg daily dose; compared to vehicle control; FIG. 13B
# Experimental: as §2, §3, §4, §5
# [6] = tested on: human colorectal (CTG-0923) cancer; experiment: Patient derived xenograft (PDX) tumor growth, colorectal; assay type: in vivo, mice; settings: SC every 12 hours, 5 mg or 10 mg daily dose; compared to vehicle control; FIG. 13C
# Experimental: as §2, §3, §4, §5
# HEY-T30 cells = experiment: Cell cycle analysis by 7-AAD, Taxol-resistant ovarian cancer cells; assay type: cell-based; settings: 24 hours
# Experimental: Cells (1×10^6 cells/ml) were cultured in 12-well plates in 10% FCS. After 24 hours the medium was replaced by 1% FCS and BKT300-N1 or Taxol (250-3.75 nM) were added.
# 24 hours incubation, cells were harvested and washed with PBS. The pellet was fixed by adding 200 μl Fix/Perm buffer and vortexed. The fixed cells were incubated for 20 minutes at 4° C. and then 1 ml of Perm/Wash buffer was added. Following centrifugation, supernatant was removed and cells were resuspended in 100 μl Perm/Wash plus 4 μl of 7-AAD and vortexed. The cells were then incubated in the dark for 20 minutes at 4° C. and thereafter 300 μl of PBS was added. Flow cytometry analysis was performed by collecting 20,000 events per sample. Analysis was done according to the distribution of cells in three major phases of the cycle: G0/G1 (blue), S (purple), G2/M (green), and apoptotic cells (red), as shown in FIGS. 15-18C.
# All results are expressed as average ±SD. Statistical differences were determined by an analysis of two-tailed Student's t test. Values of p<0.05 were considered to be statistically significant.
# Cells were incubated in different doses of Taxol (30, 15, 7.5, 3.75 nM) for 24 hours and were thereafter analyzed as described hereinabove.
# Next, the effect of BKT300-N1 on the taxol resistance cells was tested. Both ovarian cancer cell lines were incubated with BKT300-N1 (250, 125, 62.5, 31.25, 15.6 nM). For comparison, the effect of the same amounts of Taxol was also tested.
# cancer cells = settings: described in WO 2017/103931; cited from earlier work
# OVCAR8 cells = experiment: Cell cycle analysis by 7-AAD, Taxol-sensitive ovarian cancer cells; assay type: cell-based; settings: lowest taxol concentration of 3.75 nM; 24 hours; FIG. 16
# Experimental: Cells (1×10^6 cells/ml) were cultured in 12-well plates in 10% FCS. […] 24 hours incubation, cells were harvested and washed with PBS. The pellet was fixed by adding 200 μl Fix/Perm buffer and vortexed. The fixed cells were incubated for 20 minutes at 4° C. and then 1 ml of Perm/Wash buffer was added. Following centrifugation, supernatant was removed and cells were resuspended in 100 μl Perm/Wash plus 4 μl of 7-AAD and vortexed. The cells were then incubated in the dark for 20 minutes at 4° C. and thereafter 300 μl of PBS was added. Flow cytometry analysis was performed by collecting 20,000 events per sample. […] All results are expressed as average ±SD. Statistical differences were determined by an analysis of two-tailed Student's t test. Values of p<0.05 were considered to be statistically significant. Cells were incubated in different doses of Taxol (30, 15, 7.5, 3.75 nM) for 24 hours and were thereafter analyzed as described hereinabove.
# CXCR4 = settings: animal studies, cited from earlier work
# [7] = all tested concentrations (0.05, 0.1, 0.5 and 1 μM), FIG. 8A
compound,measurement,setting,value
"CCCCCC1C(=O)Nc2c(Oc3ccc(OC)cc3OC)cc(OC)cc2C1=O (stereo not shown) [BKT300-3-C5, reference compound]",cells death,"U937 cells [1]; concentration lower than 0.5 μM, FIG. 8B",did not induce cells death
"CCCCCc1c(O)c2cc(OC)cc(Oc3ccc(O)cc3OC)c2[nH]c1=O [BKT300-N1, 4-hydroxy-8-(4-hydroxy-2-methoxyphenoxy)-6-methoxy-3-pentylquinolin-2(1H)-one]",migration of lymphocytic Jurkat cells towards SDF-1,SDF-1,significantly inhibited
same,wound width values,"HCC SNU449 cells; 0.05, 0.1, 0.5, 1 and 10 μM, over BKT300-3-C5, particularly at the lower concentrations, FIGS. 4A-4E",improved effect
same,relative wound area,"HCC SNU449 cells; at 24 hours, already at 0.1 μM, compared to BKT300-3-C5, FIG. 3",improved effect
same,viability of U937 cells as the number of Annexin-V−/PI− viable cells,"U937 cells [2]; all tested concentrations, FIG. 6A",improved effect
same,reduction in the percentage of viable cells via apoptosis,U937 cells [2]; FIGS. 6A-6B,substantially higher effect
same,presence of cleaved caspase-3 (mechanism of induced apoptosis),[3],via caspase-3 activation
same,cell cycle arrest,U937 cells [1]; [7],resulted in cell cycle arrest
same,cells death,U937 cells [1]; [7],induced cells death
same,apoptotic cell death,H69 cells,induce apoptotic cell death
same,cell cycle growth arrest,H69 cells,arrest the growth at the G2M phase
same,tumor growth,[4],substantial reduction and even arrest in tumor growth
same,tumor growth,[5],substantial reduction and even arrest in tumor growth
same,tumor growth,[6],substantial reduction and even arrest in tumor growth
same,level of dead cells,"HEY-T30 cells; significant at a concentration of 62.5 nM, FIG. 18A",increasing the level of dead cells
same,percentage of cells at G0/G1 phase,"HEY-T30 cells; significant at concentration of 125 nM, FIG. 18B",reducing the percentage of cells at G0/G1 phase
same,level of cells in G2/M phase,"HEY-T30 cells; significant at concentration of 125 nM, FIG. 18C",increasing the level of cells in G2/M phase
CCCCCc1cc2cc(O)cc(Oc3c(O)cc(O)cc3CCCCC)c2c(=O)o1 [BKT300],cancer cell death,cancer cells,inducing cancer cell death
same,cancer cell migration,cancer cells,inhibiting cancer cell migration
"CC(=O)O[C@H]1C(=O)[C@@]2(C)[C@H]([C@H](OC(=O)c3ccccc3)[C@]3(O)C[C@H](OC(=O)[C@H](O)[C@@H](NC(=O)c4ccccc4)c4ccccc4)C(C)=C1C3(C)C)[C@]1(OC(C)=O)CO[C@@H]1C[C@@H]2O [Taxol, reference compound]",effect on cell cycle,"HEY-T30 cells; Taxol 30, 15, 7.5, 3.75 nM, FIG. 15",no effect on cell cycle
same,"effects on dead cells, G0/G1 phase and G2/M phase","HEY-T30 cells; any of the tested concentrations (250, 125, 62.5, 31.25, 15.6 nM), FIGS. 18A-18C",no significant effects
same,effect on cell cycle,OVCAR8 cells,effect on cell cycle was already evident
c1cc(CN2CCCNCCNCCCNCC2)ccc1CN1CCCNCCNCCCNCC1 [plerixafor],recurrence of glioblastoma associated with vasculogenesis,CXCR4; Kioi et al. 2010,reduce recurrence of glioblastoma
same,metastasis,CXCR4; Smith et al. 2004,reduce metastasis
same,opioid-induced hyperalgesia,CXCR4; Wilson et al. 2011,counteract opioid-induced hyperalgesia

# From patent US11780814B2, “Small molecules for treating cancer, inhibiting chemokine activity and/or inducing cell death” (AlonBio Ltd., priority 2019, dated 2023)
